Assay results reported in patent US20120283293A1, “Methods of neuroprotection involving Prostaglandin E2 EP4 (PGE2 EP4) receptor activation” (The Board of Trustees of the Leland Stanford Junior …, priority 2011, published 2012).

How the values were obtained:
primary microglia = test: qPCR of inflammatory gene expression in LPS-stimulated primary microglia; type: cell-based, rat; conditions: LPS treated primary microglia, AE1-329 100 nM, 3 h
Experimental: Murine microglial-like BV-2 cells were grown in DMEM medium supplemented with 10% heat-inactivated fetal bovine serum (HyClone, Logan, Utah) and 100 units/ml each of penicillin and streptomycin and were maintained at 37° C. in a humidified atmosphere containing 5% CO2. For primary microglial cultures, cerebral cortices were isolated from postnatal day 2 Sprague-Dawley rat pups obtained from Charles River Laboratories International, Inc. (Davis, Calif.). Tissues were minced and incubated in 0.25% trypsin-EDTA, mechanically triturated in DMEM/F-12 with 10% FBS, and plated on poly-L-lysine-coated […]. Cultures were maintained for 14 days with media changes every 4 days. […]
(§1) qPCR was carried out as previously described (Liang et al., 2008). […] The mRNA level for each target gene was quantified by SYBR Green-based qPCR using the QuantiTect SYBR Green PCR kit (Qiagen). […] Quantification was performed using the standard curve method. […]
Inflammatory stimuli such as LPS can activate microglia through the CD14/TLR4 receptor complex and induce the expression of pro-inflammatory enzymes and cytokines (Fassbender et al., 2004; Walter et al., 2007). […] BV-2 cells were treated with LPS (10 ng/ml) in the presence or absence of the selective EP4 agonist AE1-329 (1 μM) for 6 h, and pro-inflammatory gene expression was measured using qPCR (see FIG. 2). […]

[1] = system: hippocampus of LPS-treated mice; test: LPS-induced hippocampal pro-inflammatory gene response in mice (qPCR, microglial morphology); type: in vivo, mouse
Experimental: The murine in vivo studies were conducted in accordance with the National Institutes of Health guidelines for the use of experimental animals and protocols were approved by the Institutional Animal Care and Use Committee. C57B6 EP4 floxed mice (Schneider et al., 2004) were kindly provided by Drs. Richard and Matthew Breyer (Vanderbilt University School of Medicine, Nashville, Tenn.), and C57B6 Cd11bCre mice (Boillee et al., 2006) were kindly provided by Dr. G. Kollias (Alexander Fleming Biomedical Sciences Research Center, Vari, Greece) and Dr. Donald Cleveland (UCSD, San Diego, Calif.). All mice were housed in an environment controlled for lighting (12 hour light/dark cycle), temperature, and humidity, with food and water available ad libitum. Cd11bCre:EP4f/f and Cd11bCre:EP4+/+ mice were generated by serial crosses of C57B6 Cd11bCre and EP4f/f and EP4+/+ lines. Male Cd11bCre: EP4f/f and Cd11bCre: EP4+/+ mice were treated with either saline or LPS (5 mg/kg intraperitoneally: n=5-8 per group, 13 months of age). 24 hours after injection, mice were euthanized and brain tissue was harvested and frozen at −80° C. For pharmacological experiments, C57B6 male mice (Jackson Laboratories, Bar Harbor, Me.; n=7 or 8 per group) received an injection of saline or LPS (5 mg/kg, i.p.+/−vehicle or AE1-329 ([…]) (Qin et al., 2007; Nagamatsu et al., 2006). Mice were euthanized 6 hours later, and brain tissue was harvested and frozen at −80° C. For collection of plasma, C57B6 male mice (n=5 per group) received an injection of saline or LPS (5 mg/kg, i.p.)+/−AE1-329 ([…] s.c.) or vehicle. Mice were deeply anesthetized with isoflurane at 3 h and blood was collected in a 1-ml syringe pre-coated with EDTA (250 mM) and placed in EDTA coated tubes. […]
as §1

EP4 receptor = conditions: Suzawa et al., 2000; Shibuya et al., 2002; cited from earlier work
[2] = mice, LPS 5 mg/kg i.p., AE1-329 300 μg/kg s.c., 6 hours

Structure (SMILES): COCc1ccccc1CC[C@H](O)/C=C/[C@H]1[C@H](O)CC(=O)[C@@H]1SCCCSCC(=O)O [AE1-329]
- IL-10 expression (primary microglia): upregulation of the anti-inflammatory IL-10
- pro-inflammatory gene expression (iNOS, COX-2, TNF-α, gp91phox) (primary microglia): downregulation of pro-inflammatory gene expression
- LPS-induced COX-2, iNOS, TNF-α, IL-6 and IL-1β mRNA levels in hippocampus [1, 2]: significantly attenuated
- hippocampal expression of NADPH oxidase subunits gp91phox, p67phox and p47phox [1, 2]: trend toward decreased expression
- microglial morphological changes in response to LPS (Iba1 staining) ([1]; mouse hippocampal CA1, 6 hours after LPS + AE1-329): modestly decreased
- selectivity for the EP4 receptor (EP4 receptor): selectivity for the EP4 receptor has been previously established
